Data set [1] deals with T1, Poly [ADP-ribose] polymerase 1 (Homo sapiens, UniProt P09874). Nature of the data set: Inhibition of human PARP1 using NAD+ as substrate at 5 nM incubated for 1 hr by ELISA relative to control. For orientation: An ELISA detects its analyte on a solid surface through an enzyme-linked reagent.
Data set [2] deals with T2, Poly [ADP-ribose] polymerase 2 (Homo sapiens, UniProt Q9UGN5). Nature of the data set: Inhibition of human PARP2 using NAD+ as substrate at 5 nM incubated for 1 hr by ELISA relative to control.
Data set [3] concerns the target T1, Poly [ADP-ribose] polymerase 1. Nature of the data set: Inhibition of human PARP1 using NAD+ as substrate incubated for 1 hr by ELISA.
Data set [4] deals with T2, Poly [ADP-ribose] polymerase 2. Nature of the data set: Inhibition of human PARP2 using NAD+ as substrate incubated for 1 hr by ELISA.
A further data set deals with MX1. Nature of the data set: Antiproliferative activity against human BRCA mutant MX1 cells assessed as inhibition of cell growth incubated for 48 hrs by MTT assay. Format: functional, cell-based. The following applies: MX1, 48 h. (Formazan colour is commonly taken as a measure of viable cells.)
A further data set deals with MCF7. Nature of the data set: Antiproliferative activity against human MCF7 cells assessed as inhibition of cell growth incubated for 48 hrs by MTT assay. In kind it is functional, cell-based. The note with it: MCF7, 48 h.
In data set [5] the test system is A549. Nature of the data set: Antiproliferative activity against human A549 cells assessed as inhibition of cell growth incubated for 48 hrs by MTT assay. Format: functional, cell-based. The following applies: A549, 48 h.
The test system of another data set is MDA-MB-436. Nature of the data set: Antitumor activity against human BRCA1 mutant MDA-MB-436 cells xenografted athymic BALB/c mouse assessed as inhibition of tumor volume at 50 mg/kg/day, po administered for 18 days and measured twice weekly. In kind it is functional, organism-based. The note with it: time 18.0 day. A general note: Xenograft models place foreign cells or tissue in a host animal.

Data set [6] in a line: Toxicity athymic BALB/c mouse xenografted with human BRCA1 mutant MDA-MB-436 cells assessed as change in body weight at 50 mg/kg/day, po administered for 18 days and measured twice weekly. The following applies: in vivo, 432 h, time 18 day. In kind it is organism-based.
For a further data set, the system named is Mus musculus. Nature of the data set: In vivo inhibition of PARP1 in athymic BALB/c mouse xenografted with human BRCA1 mutant MDA-MB-436 cells assessed as prevention of PAR formation 50 mg/kg/day, po measured after 48 hrs by Western blot analysis. Format: functional, organism-based.
Data set [7] has as its system A549. Nature of the data set: […] human A549 cells assessed as reduction in PAR level measured after 48 hrs by Western blot analysis. The note with it: dose 2.5-10 µM, DDE = dose-dependent effect. Format: functional, cell-based.

Active and inactive are the calls of the source. No cut-off for these calls is given here.

T1 sequence (P09874 whole entry): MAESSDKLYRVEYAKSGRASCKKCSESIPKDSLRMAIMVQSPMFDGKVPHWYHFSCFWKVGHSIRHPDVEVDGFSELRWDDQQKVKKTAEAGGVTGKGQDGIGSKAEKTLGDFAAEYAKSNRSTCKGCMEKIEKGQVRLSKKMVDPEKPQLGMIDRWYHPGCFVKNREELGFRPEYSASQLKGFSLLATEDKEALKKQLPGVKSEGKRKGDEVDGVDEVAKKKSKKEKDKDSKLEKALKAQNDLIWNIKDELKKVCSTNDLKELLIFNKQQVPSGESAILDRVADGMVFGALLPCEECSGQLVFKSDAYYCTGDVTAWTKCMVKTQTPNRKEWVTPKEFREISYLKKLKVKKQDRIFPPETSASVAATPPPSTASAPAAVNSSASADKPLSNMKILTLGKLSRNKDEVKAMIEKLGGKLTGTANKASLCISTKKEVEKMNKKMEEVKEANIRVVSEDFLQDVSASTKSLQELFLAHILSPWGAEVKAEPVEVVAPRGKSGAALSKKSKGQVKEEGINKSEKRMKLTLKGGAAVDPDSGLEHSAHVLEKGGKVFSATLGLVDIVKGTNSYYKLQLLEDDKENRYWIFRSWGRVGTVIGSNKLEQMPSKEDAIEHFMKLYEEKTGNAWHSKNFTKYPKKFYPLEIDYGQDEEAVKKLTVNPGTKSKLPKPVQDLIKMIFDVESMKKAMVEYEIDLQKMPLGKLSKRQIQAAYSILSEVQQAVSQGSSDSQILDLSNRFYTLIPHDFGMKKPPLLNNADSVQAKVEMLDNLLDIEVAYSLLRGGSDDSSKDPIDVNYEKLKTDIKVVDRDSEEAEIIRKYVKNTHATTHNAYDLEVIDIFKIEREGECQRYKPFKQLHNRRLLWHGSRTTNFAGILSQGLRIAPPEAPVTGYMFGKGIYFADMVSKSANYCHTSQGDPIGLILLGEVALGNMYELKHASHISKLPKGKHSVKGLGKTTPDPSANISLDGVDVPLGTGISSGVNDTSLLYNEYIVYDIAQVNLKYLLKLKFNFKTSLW
T2 sequence (Q9UGN5 whole entry): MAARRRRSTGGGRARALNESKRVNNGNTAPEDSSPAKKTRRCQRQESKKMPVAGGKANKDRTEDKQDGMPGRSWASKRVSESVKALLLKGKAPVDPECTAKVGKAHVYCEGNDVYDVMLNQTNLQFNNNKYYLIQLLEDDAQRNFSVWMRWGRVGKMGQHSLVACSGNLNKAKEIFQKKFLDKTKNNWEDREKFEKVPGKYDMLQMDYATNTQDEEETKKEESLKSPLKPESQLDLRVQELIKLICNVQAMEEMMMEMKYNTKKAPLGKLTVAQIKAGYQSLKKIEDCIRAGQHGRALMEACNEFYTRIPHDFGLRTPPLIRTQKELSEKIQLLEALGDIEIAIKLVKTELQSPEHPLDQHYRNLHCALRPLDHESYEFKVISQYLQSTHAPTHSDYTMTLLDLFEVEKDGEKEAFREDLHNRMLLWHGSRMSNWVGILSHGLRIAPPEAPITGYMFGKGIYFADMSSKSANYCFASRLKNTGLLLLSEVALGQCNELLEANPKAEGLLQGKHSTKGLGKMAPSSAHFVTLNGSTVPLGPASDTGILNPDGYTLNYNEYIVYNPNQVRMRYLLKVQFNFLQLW

One may read the inhibition as the relative decrease from the control value, in per cent. By IC50 is commonly meant the concentration at which inhibition is half-maximal. `C[C@@H]1CN(Cc2ccc(-c3[nH]c4cc(F)cc5c4c3CCNC5=O)cc2)CCN1`: the inhibition stood at 90.4% in data set [1] and 58.8% in [2]. Moreover, the IC50 is 0.00066 µM in [3]; 0.00291 µM in [4]; 16.8 µM with MX1; 46.5 µM in the data set on MCF7; 48.2 µM in the data set on A549 [5]. Also, the result in the data set with MDA-MB-436 was Active. Moreover, the Activity result in data set [6] is given as “Toxic”. Moreover, the inhibition result in the data set on Mus musculus was “Active”.
With `NC1CCN(Cc2cccc(-c3[nH]c4cc(F)cc5c4c3CCNC5=O)c2)CC1`, the inhibition was 85.8% in data set [1] and 15.3% in data set [2]. Moreover, the concentration for half-maximal inhibition (IC50) in data set [3] came to 0.00096 µM; in data set [4], 0.0619 µM; in the data set with MX1, 9.46 µM; in the data set on MCF7 it was 124 µM; in the data set with A549 [5], 106 µM. Moreover, the Activity result with A549 [7] is “Dde”; in data set [6], “Non-Toxic”. Besides, the result in the data set on MDA-MB-436 was Active. In addition, in the data set on Mus musculus, the inhibition entry was “Active”.

Source of the values: ChEMBL document CHEMBL5131383, “Structure-based design, synthesis, and evaluation of inhibitors with high selectivity for PARP-1 over PARP-2” (Eur J Med Chem, 2022).
